Experimental data reported in US20240352309A1, “FLUORESCENT DYE, AND PREPARATION METHOD THEREFOR AND USE THEREOF” (FLUORESCENCE DIAGNOSIS (SHANGHAI) BIOTECH COMPANY LTD., priority 2021, published 2024).

Tests used:
[1] = tested on: RNA aptamer in stable cell line (293T/17); assay: Confocal imaging of cells expressing RNA aptamer (Test Example 5); format: cell-based; conditions: 2 uM dye, 10 min incubation, confocal microscopy; cells not expressing aptamers do not fluoresce
Protocol: Stable cell line (293T/17) continuously expressing RNA aptamer ([…]) and control cells (293T/17) were used, and cell culture media of dye1, dye12, dye25, and dye41 with a final concentration of 2 uM substituted original cell culture media after the cell line and control cells grew to a cell confluence of 90% under the conventional mammalian cell culture condition (37° C., 5% carbon dioxide, 100% relative humidity), and were incubated for 10 min (37° C., 5% carbon dioxide, 100% relative humidity).

[2] = Background fluorescence in PBS (Test Example 4); format: physicochemical; conditions: 1×10^−5 M, relative to contrast dyes of the same group (dye48, dye49, dye50, dye47)
Protocol: The dye1 and dye48; dye22 and dye49; dye40 and dye50; dye9, dye10 and dye47 were added to PBS to prepare a solution with a final concentration of 1×10^−5 M, corresponding maximum excitation wavelengths were used for exciting the dyes so that their fluorescence intensities in PBS could be detected, and normalization was performed with the strongest fluorescence intensity in each group of samples as 100, as shown respectively in FIGS. 21, 22, 23 and 24.

[3] = Fluorescence emission in glycerol and methanol (Test Example 1); format: physicochemical; conditions: for Fluorescence intensity ratio in glycerol and methanol: 1×10^−5 M in glycerol vs methanol, maximum excitation wavelength; for Emission wavelength: 1×10^−5 M, excited at maximum excitation wavelength of each dye
Protocol: The fluorescent dye (molecular rotors) prepared in Examples dye1-dye42 were dissolved in DMSO each to prepare a mother solution with a concentration of 1×10^−2 M, and each mother solution was added to glycerol and methanol respectively and was mixed well, and a solution with a final concentration of 1×10^−5 M was prepared.

[4] = tested on: RNA aptamer in stable cell line (293T/17); assay: Flow detection of cells expressing RNA aptamer (Test Example 6); format: cell-based; conditions: 1 μM dye in PBS, 5 minutes
[5] = Emission spectra in glycerol, wavelength adjustment (Test Example 3); format: physicochemical; conditions: 1×10^−5 M, dye6 vs dye5, oxo-carbonyl turned into thiocarbonyl
Protocol: The dye5, dye6, dye11, dye12, dye13, dye14, dye39 and dye42 were added into glycerol to prepare a solution with a final concentration of 1×10^−5 M, fluorescent dyes were excited with corresponding maximum excitation wavelength so as to obtain the emission spectra, and some of the emission spectra were normalized.

[6] = Fluorescence emission in glycerol-diethanol mixed solutions of different viscosities (Test Example 2); format: physicochemical; conditions: glycerol-diethanol mixed solution, 16.4-946.0 cp, 1×10^−5 M
From the text: The dye7, dye9, dye12, dye25, dye40 were respectively added into a glycerol-diethanol mixed solution with the following viscosities: 16.4 cp (the volume ratio of glycerol was 0%), 29.8 cp (the volume ratio of glycerol was 20%), 64.5 cp (the volume ratio of glycerol was 40%), 143.5 cp (the volume ratio of glycerol was 60%), 377.0 cp (the volume ratio of glycerol was 80%), 946.0 cp (the volume ratio of glycerol was 100%), so as to prepare solutions with a final concentration of 1×10^−5 M; the fluorescence emission spectra under different viscosity conditions were shown as FIGS. 1, 3, 5, 7 and 9, wherein the emission wavelengths of the above-mentioned molecular rotors were respectively 620 nm, 576 nm, 650 nm, 670 nm and 720 nm. According to the results, fluorescence intensities of fluorescent dyes of the same concentration increase with ambient viscosity.

[7] = Fluorescence in solvents with different polarities (Test Example 2); format: physicochemical; conditions: methylbenzene, ethyl acetate, methyl alcohol, acetonitrile, dimethyl sulfoxide

Compound	Fluorescence intensity ratio in glycerol and methanol [3]	Emission wavelength [3] [nm]	other results
CN1C(=O)S/C(=C\c2ccc(N(C)CCO)s2)C1=O [dye1]	695	520	fluorescence of cells expressing aptamers [1]: bright fluorescence; background fluorescence in PBS [2]: lower background fluorescence
CCN1C(=O)/C(=C/c2ncc(N(C)CCO)s2)SC1=S [dye2]	587	532	–
CN1CCOc2cc(/C=C3\NC(=S)NC3=O)ccc21 [dye3]	637	580	dye background fluorescence before binding [4]: very low; fluorescence after binding to RNA aptamer in cells [4]: notably activated
CN1CCOc2cc(/C=C3\SC(=O)NC3=S)ccc21 [dye4]	984	620	–
CN1CCSc2cc(/C=C3\SC(=O)NC3=O)ccc21 [dye5]	1021	550	–
CN1CCSc2cc(/C=C3\SC(=S)NC3=O)ccc21 [dye6]	658	608	increase of emission wavelength [5]: about 50 nm
CC1=CC(C)(C)N(C)c2ccc(/C=C3\SC(=O)NC3=S)cc21 [dye7]	754	620	Emission wavelength [6]: 620 nm; viscosity response of fluorescence intensity [6]: sensitive to viscosity; fluorescence intensity in solvents with different polarities [7]: weak
O=C1NC(=S)N/C1=C\c1cc2c3c(c1)CCCN3CCC2 [dye9]	951	586	Emission wavelength [6]: 576 nm; viscosity response of fluorescence intensity [6]: sensitive to viscosity; background fluorescence in PBS [2]: lower background fluorescence; fluorescence intensity in solvents with different polarities [7]: weak
S=C1NC(=S)/C(=C/c2cc3c4c(c2)CCCN4CCC3)S1 [dye10]	638	675	background fluorescence in PBS [2]: lower background fluorescence
CN(CCO)c1cc2sc(/C=C3\SC(=O)NC3=O)cc2s1 [dye11]	954	590	–
CN(CCO)c1cc2sc(/C=C3\SC(=S)NC3=O)cc2s1 [dye12]	654	650	fluorescence of cells expressing aptamers [1]: bright fluorescence; Emission wavelength [6]: 650 nm; viscosity response of fluorescence intensity [6]: sensitive to viscosity; fluorescence intensity in solvents with different polarities [7]: weak
CN(CCO)c1cc2sc(/C=C3\SC(=S)NC3=S)cc2s1 [dye14]	852	720	–
CN1C(=O)/C(=C/c2cc3sc(N(C)CCO)cc3s2)SC1=S [dye15]	891	655	–
CN1C(=S)S/C(=C\c2cc3sc(N(C)CCO)cc3s2)C1=S [dye16]	982	730	–
CN(CCO)c1cc2sc(/C=C3\NC(=S)N(CCC(=O)O)C3=O)cc2s1 [dye17]	993	630	–
CN1C(=O)/C(=C/c2cc3sc(N(C)CCOCCOCCO)cc3s2)SC1=S [dye18]	1026	588	–
CCCCCCCCCCN(C)c1cc2sc(/C=C3\SC(=S)N(C)C3=O)cc2s1 [dye19]	1098	650	–
O=C1NC(=S)S/C1=C\c1cc2sc(N(CCO)CCO)cc2s1 [dye20]	1133	650	–
O=C1NC(=S)N/C1=C\c1cc2sc(N(CCO)CCO)cc2s1 [dye21]	1098	635	dye background fluorescence before binding [4]: very low; fluorescence after binding to RNA aptamer in cells [4]: notably activated
CN(CCO)c1ccc2cc(/C=C3\SC(=S)NC3=O)sc2c1 [dye22]	687	605	background fluorescence in PBS [2]: lower background fluorescence
CN(CCNS(C)(=O)=O)c1ccc2cc(/C=C3\NC(=S)NC3=O)sc2c1 [dye23]	985	640	–

Compound	Fluorescence intensity ratio in glycerol and methanol [3]	Emission wavelength [3] [nm]	other results
CN(C)CCN(C)c1ccc2cc(/C=C3\SC(=O)NC3=O)sc2c1 [dye24]	465	750	–
CN1C(=O)/C(=C/c2ccc3cc(N(C)CCCl)ccc3n2)SC1=S [dye26]	871	660	–
CN(CCO)c1ccc2nc(/C=C3\SC(=S)NC3=O)sc2c1 [dye27]	765	590	–
CCN1C(=O)S/C(=C\c2cc3ccc(N(C)CCO)cc3o2)C1=O [dye28]	682	690	–
CN1C(=O)/C(=C/c2nc3ccc(N(C)CCO)cc3o2)NC1=S [dye29]	721	650	–
CN(C)c1ccc2cc(/C=C3\SC(=S)N(N)C3=O)sc2c1 [dye30]	761	640	–
CN(C)c1ccc2cc(/C=C3\SC(=S)N(CCC(=O)O)C3=S)oc2c1 [dye31]	980	685	–
CN(C)c1ccc2cc(/C=C3\NC(=S)NC3=S)oc2c1 [dye32]	687	654	–
CN(C)c1ccc2nc(/C=C3\SC(=N)NC3=N)oc2c1 [dye33]	461	622	–
CN(CCO)c1ccc2c(c1)C(C)(C)c1cc(/C=C3\SC(=O)NC3=O)ccc1-2 [dye34]	630	680	dye background fluorescence before binding [4]: very low; fluorescence after binding to RNA aptamer in cells [4]: notably activated
CN(CCO)c1ccc2c(c1)C(C)(C)c1cc(/C=C3\SC(=S)NC3=O)ccc1-2 [dye35]	530	740	–
CN(CCO)c1ccc2c(c1)sc1cc(/C=C3\SC(=S)NC3=O)sc12 [dye36]	510	735	–
CN(CCO)c1cc2c(s1)-c1sc(/C=C3\OC(=N)NC3=N)cc1[Si]2(C)C [dye37]	620	720	–
CN(CCO)c1cc2cc3sc(/C=C4\OC(=S)NC4=S)cc3cc2s1 [dye38]	741	730	–
CN(CCO)c1ccc2c(c1)C(C)(C)c1cc(/C=C3\SC(=S)NC3=S)sc1-2 [dye39]	627	820	–
CN1C(=S)N/C(=C\c2cc3c(s2)-c2ccc(N(C)CCO)cc2C3(C)C)C1=S [dye40]	695	730	Emission wavelength [6]: 720 nm; viscosity response of fluorescence intensity [6]: sensitive to viscosity; background fluorescence in PBS [2]: lower background fluorescence; fluorescence intensity in solvents with different polarities [7]: weak
CN(CCO)c1cc2c(s1)-c1sc(/C=C3\NC(=S)NC3=O)cc1C2(C)C [dye41]	594	735	fluorescence of cells expressing aptamers [1]: bright fluorescence
CN(CCO)c1cc2c(s1)-c1sc(/C=C3\SC(=S)NC3=S)cc1C2(C)C [dye42]	364	800	–
CN(CCO)c1ccc2c(c1)C(C)(C)C(/C=C1\SC(=O)NC1=O)=N2 [dye44]	465	680	–
CN(CCO)c1ccc2c(c1)C(C)(C)C(/C=C1\SC(=S)NC1=O)=N2 [dye45]	562	717	–
CN(C)c1ccc(C2=C(C#N)C(=C(C#N)C#N)OC2(C)C)cc1 [dye50, reference compound]	–	–	dye background fluorescence before binding [4]: obvious
